Laboratory results taken from US12545686B2, “Polymorphic forms of (s)-n-(3-bromo-2-fluorophenyl)-7-((4-methylpiperazin-1-yl)methyl)-7,8-dihydro-[1,4]dioxino[2,3-g]quinazolin-4-amine as EGFR inhibitors” (ERASCA, INC., priority 2021, dated 2026).
Converted amounts (≈) assume the structure as drawn.

Columns and labels:
Type in all cases: physicochemical
[1] = Approximate solubility by incremental addition of solvent; conditions: for solubility: thermodynamic from solid
Method: Solubility: Approximate solubilities were determined by incremental addition of solvent to about 10 mg the compound. If the substance was not dissolved by addition of a total of at least 10 ml solvent, the solubility is indicated as <1 mg/ml. Due to the experimental error inherent in this method, the solubility values are intended to be regarded as rough estimates and are to be used solely for the design of crystallization experiments.
Approximate solubilities were determined for amorphous Compound (I) at room temperature. These values were obtained by addition of small aliquots of solvent to small amounts of solid to achieve dissolution by stirring or agitation for a short period of time. […] Ratios for solvent mixtures correspond to volume ratios.
Initially the tests were carried out with the amorphous form Compound (I) and later on, after stable crystalline Form D (Example 7 below) was discovered, some of the tests were repeated with the crystalline form. […] Antisolvents are water, heptane, and TBME. […] Based on available data and further experiments diisopropylether, cyclohexane and methylcyclohexane can also be used as antisolvents.

[2] = Aqueous solubility; conditions: water, thermodynamic from solid; for solubility at 24 h: equilibration time 24 hours
[3] = pH dependent solubility tests in 0.1 M HCl, citrate buffer and USP phosphate buffers; conditions: thermodynamic from solid
Method: pH dependent solubility tests were conducted in 0.1 M HCl, in citrate buffer, and in USP phosphate buffers with nominal pH values of 6.8 and 7.4. Solubility tests at pH values below 5 failed because all compounds dissolved during the equilibration phase.

[4] = Dynamic vapor sorption (DVS), with PXRD and TG-FTIR of the post-DVS sample; conditions: for Solid form of the sample recovered post-DVS (PXRD): PXRD after DVS; for Water content of the post-DVS sample by TG-FTIR: sample recovered at end of DVS test; for Total water content change during the DVS cycles: wet sample used
Method: Dynamic vapor sorption: DVS measurements were performed with an SPS11-100n “Sorptions Prifsystem” from ProUmid (formerly “Projekt Messtechnik”), August-Nagel-Str. 23, 89079 Ulm (Germany). About 5-20 mg of sample was put into an aluminum sample pan. Humidity change rates of 5% per hour were used. The applied measurement program is visualized in the figure (blue trace). The presentations showing the effective water content are corrected.
The sample was placed on an aluminum or platinum holder on top of a microbalance and allowed to equilibrate at 50% RH before starting the pre-defined humidity programs. The measurement program is visualized in the figures of the report.
Classification of Hygroscopicity: The hygroscopicity was classified based on the mass gain at 85% RH relative to the initial mass as follows: deliquescent (sufficient water adsorbed to form a liquid), very hygroscopic (mass increase of ≥15%), hygroscopic (mass increase <15% but ≥2%), slightly hygroscopic (mass increase <2% but ≥0.2%), or non-hygroscopic (mass increase <0.2%).

[5] = Thermogravimetry coupled with FT-IR (TG-FTIR), decomposition
Method: TG-FTIR: Thermogravimetric measurements were carried out with a Netzsch Thermo-Microbalance TG 209 coupled to a Bruker FTIR Spectrometer Vector 22 (sample pans with a pinhole, N2 atmosphere, heating rate 10 K/min).

[6] = Physical form stability on drying (PXRD)
Method: PowderX-ray diffraction: Powder X-ray diffraction was carried out with a Stoe Stadi P diffractometer equipped with a Mythen1K detector operating with Cu—Kα1 radiation. The measurements with this instrument were performed in transmission at a tube voltage of 40 kV and 40 mA tube power. A curved Ge monochromator allows testing with Cu—Kα1 radiation. The following parameters were set: 0.02° 20 step size, 12 s step time, 1.5-50.5° 20 scanning range, and 1° 20 detector step (detector mode in step scan). For a typical sample preparation about 10 mg of sample was placed between two acetate foils and mounted into a Stoe transmission sample holder. The sample was rotated during the measurement. All sample preparation and measurement was done in an ambient air atmosphere.
The first crystalline form of Compound (I) was designated as Form A and was obtained from a suspension equilibration experiment of the amorphous form in an isopropanol—water mixture. Form A was characterized by PXRD, TG-FTIR, H-NMR and DVS.
The PXRD pattern of Form A is depicted in FIG. 1. It should be noted that this sample was examined by PXRD before drying and that the undried sample is highly crystalline in nature. […] A TG-FTIR of the crystal Form A sample without much drying indicated a large mass loss of 36.6% that is attributable to water and isopropanol. Given the large mass loss it was concluded that drying was insufficient, and therefore the sample was further dried under vacuum at ambient temperature for about 23 hours and a new TG-FTIR was recorded.
As with Form A, Form B was examined by PXRD before drying was indicated to be highly crystalline in nature. […] A TG-FTIR was carried out for Form B without further drying and the thermogram indicated a large mass loss of 36.5% that is attributable to water; however no alcohol was detected. Given the large mass loss it was concluded that drying was insufficient, and the sample was subjected to further vacuum drying at ambient temperature for ten minutes and a new TG-FTIR was recorded. The new TG-FTIR thermogram indicated a water content of about 4.6%.

[7] = Solubility tests in potential process solvent mixtures; conditions: thermodynamic from solid

Structure (SMILES): CN1CCN(C[C@H]2COc3cc4ncnc(Nc5cccc(Br)c5F)c4cc3O2)CC1 [Amorphous form, (S)—N-(3-bromo-2-fluorophenyl)-7-((4-methylpiperazin-1-yl)methyl)-7,8-dihydro-[1,4]dioxino[2,3-g]quinazolin-4-amine]
- solubility ([1]; 2-propanol, organic solvent or mixture, Propanol, 2-, room temperature): > 100000 µg/mL
- Approximate solubility ([1]; Acetonitrile, room temperature): S > 130 mg/ml
- Approximate solubility ([1]; Ethanol/n-heptane (1/3), room temperature): S > 130 mg/ml
- Approximate solubility ([1]; Isopropyl acetate, room temperature): S~100 mg/ml
- solubility ([1]; MEK, organic solvent or mixture, room temperature): > 100000 µg/mL
- solubility ([1]; TBME, organic solvent or mixture, room temperature): ~2000 µg/mL (≈ 4.1 mM)
- solubility ([1]; THF, organic solvent or mixture, room temperature): > 130000 µg/mL
- solubility ([1]; THF/n-heptane (1/1, v/v), organic solvent or mixture, THF/n-heptane (1/1), room temperature): ~2000 µg/mL (≈ 4.1 mM)
- Approximate solubility ([1]; Water, room temperature): S < 1 mg/ml
- Solubility in the most common organic solvents (in words) ([1]; acetic acid, ketones, alcohols, esters, dichloromethane and mixtures thereof): highly soluble
- solubility ([1]; acetic acid/water (1/3, v/v), aqueous with cosolvent or surfactant or cyclodextrin, Acetic acid/water (1/3), room temperature): > 130000 µg/mL
- solubility ([1]; acetone, organic solvent or mixture, room temperature): > 100000 µg/mL
- solubility ([1]; acetone/water (1/1, v/v), aqueous with cosolvent or surfactant or cyclodextrin, Acetone/water (1/1), room temperature): > 120000 µg/mL
- solubility ([1]; acetonitrile/water (1/1, v/v), aqueous with cosolvent or surfactant or cyclodextrin, Acetonitrile/water (1/1), room temperature): > 110000 µg/mL
- solubility ([1]; anisole, organic solvent or mixture, room temperature): > 160000 µg/mL
- solubility ([1]; dichloromethane, organic solvent or mixture, room temperature): > 100000 µg/mL
- solubility ([1]; ethanol, organic solvent or mixture, room temperature): > 100000 µg/mL
- solubility ([1]; ethanol/n-heptane (1/1, v/v), organic solvent or mixture, Ethanol/n-heptane (1/1), room temperature): > 130000 µg/mL
- solubility ([1]; ethanol/water (1/1, v/v), aqueous with cosolvent or surfactant or cyclodextrin, Ethanol/water (1/1), room temperature): > 100000 µg/mL
- solubility ([1]; ethyl acetate, organic solvent or mixture, room temperature): > 100000 µg/mL
- solubility ([1]; methanol, organic solvent or mixture, room temperature): > 100000 µg/mL
- solubility ([1]; methanol/TBME (1/2, v/v), organic solvent or mixture, Methanol/TBME (1/2), room temperature): > 140000 µg/mL
- solubility ([1]; n-heptane, organic solvent or mixture, room temperature): < 1000 µg/mL
- solubility at 24 h ([2]; pH 9.27): 49 µg/mL (≈ 0.1 mM)
- solubility at 1 h ([2]; equilibration time one hour, pH 9.16): 46 µg/mL (≈ 0.0942 mM)
- solubility ([3]; USP phosphate buffer (nominal pH 6.8), aqueous buffer, effective pH 6.95): 316 µg/mL (≈ 0.647 mM)
- solubility ([3]; USP phosphate buffer (nominal pH 7.4), pH 7.5, aqueous buffer, effective pH 7.50): 94 µg/mL (≈ 0.192 mM)
- solubility ([3]; citrate buffer, aqueous buffer, effective pH 6.25): 9630 µg/mL (≈ 19.7 mM)
- Hygroscopicity classification ([4]; DVS, classes based on mass gain at 85% RH relative to initial mass): hygroscopic (hygroscopic (mass increase <15% but ≥2%))
- Solid form of the sample recovered post-DVS (PXRD) [4]: has not changed
- Water lost during DVS ([4]; approximately same amount as during TG-FTIR): roughly 1.5%
- Water content at the end of the DVS test [4]: about 6.4%
- Water content at the high r.h. end during the DVS cycles ([4]; high r.h. end): about 15%
- Decomposition temperature [5]: above 200 °C

Structure (SMILES): CN1CCN(C[C@H]2COc3cc4ncnc(Nc5cccc(Br)c5F)c4cc3O2)CC1 [Form A, (S)—N-(3-bromo-2-fluorophenyl)-7-((4-methylpiperazin-1-yl)methyl)-7,8-dihydro-[1,4]dioxino[2,3-g]quinazolin-4-amine]
- Solid form of the sample recovered post-DVS (PXRD) [4]: Form A was retained
- Water uptake above 50% r.h. in DVS [4]: just small amounts of water
- Water lost below 50% r.h. during the DVS cycles ([4]; below 50% r.h.): about 8%
- Water content change over the whole range of relative humidity ([4]; from 0% to 95% r.h., roughly three waters per Compound (I)): ~10%
- Physical form stability [6]: poor physical form stability
- PXRD of the dried sample ([6]; dried under vacuum at ambient temperature for about 23 hours): essentially amorphous material
- Effect of drying on crystallinity ([6]; drying of highly crystalline, solvent-rich samples): significant loss of crystallinity

Structure (SMILES): CN1CCN(C[C@H]2COc3cc4ncnc(Nc5cccc(Br)c5F)c4cc3O2)CC1 [Form B, (S)—N-(3-bromo-2-fluorophenyl)-7-((4-methylpiperazin-1-yl)methyl)-7,8-dihydro-[1,4]dioxino[2,3-g]quinazolin-4-amine]
- Solid form of the sample recovered post-DVS (PXRD) [4]: crystallinity was lost
- Water uptake above 50% r.h. in DVS [4]: just small amounts of water
- Water content of the post-DVS sample by TG-FTIR [4]: about 6.4%
- Total water content change during the DVS cycles [4]: about 13%
- Physical form stability [6]: poor physical form stability
- Solid form after further drying ([6]; further drying beyond ten minutes vacuum): completely amorphous material
- PXRD of the dried sample ([6]; vacuum drying at ambient temperature for ten minutes): dramatic loss of crystallinity

Structure (SMILES): CN1CCN(C[C@H]2COc3cc4ncnc(Nc5cccc(Br)c5F)c4cc3O2)CC1 [Form C, (S)—N-(3-bromo-2-fluorophenyl)-7-((4-methylpiperazin-1-yl)methyl)-7,8-dihydro-[1,4]dioxino[2,3-g]quinazolin-4-amine]
- Solid form of the sample recovered post-DVS (PXRD) [4]: crystallinity was lost almost completely
- Water uptake above 50% r.h. in DVS [4]: just small amounts of water
- Water content at the end of the DVS test [4]: about 5.9%
- Water content of the post-DVS sample by TG-FTIR [4]: about 5.9%
- Total water content change during the DVS cycles [4]: about 14%
- Physical form stability [6]: poor physical form stability

Structure (SMILES): CN1CCN(C[C@H]2COc3cc4ncnc(Nc5cccc(Br)c5F)c4cc3O2)CC1 [Form D, (S)—N-(3-bromo-2-fluorophenyl)-7-((4-methylpiperazin-1-yl)methyl)-7,8-dihydro-[1,4]dioxino[2,3-g]quinazolin-4-amine]
- solubility ([1]; 1-methoxy-2-propanol, organic solvent or mixture, Propanol, 1-methoxy-2-, room temperature): > 200000 µg/mL
- solubility ([1]; 2-propanol/heptane (1/1, v/v), organic solvent or mixture, Propanol, 2-/heptane 1/1, room temperature): > 20000 µg/mL
- solubility ([1]; acetone/heptane (1/3, v/v), organic solvent or mixture, Acetone/heptane 1/3, room temperature): ~7000 µg/mL (≈ 14.3 mM)
- solubility ([1]; ethanol/n-heptane (1/3, v/v), organic solvent or mixture, Ethanol/n-heptane (1/3), room temperature): > 107000 µg/mL
- solubility ([1]; ethyl acetate/n-heptane (1/3, v/v), organic solvent or mixture, Ethyl acetate/n-heptane (1/3), room temperature): ~3000 µg/mL (≈ 6.14 mM)
- Solubility compared with the amorphous form (in words) ([1]; in acetonitrile and ethyl acetate): substantially lower
- solubility ([1]; isobutyl alcohol, organic solvent or mixture, Isobutylalcohol, room temperature): > 136000 µg/mL
- solubility ([1]; isopropyl acetate, organic solvent or mixture, room temperature): 90000 to 180000 µg/mL (≈ 184 to 369 mM)
- solubility ([1]; water, room temperature): < 1000 µg/mL
- solubility ([7]; 25 °C, aqueous with cosolvent or surfactant or cyclodextrin, Isopropanol - water 1:1): 20300 µg/mL (≈ 41.6 mM)
- solubility ([7]; 25 °C, aqueous with cosolvent or surfactant or cyclodextrin, Isopropanol - water 1:3): 1200 µg/mL (≈ 2.46 mM)
- solubility ([7]; 25 °C, organic solvent or mixture, Ethyl acetate - heptane 1:1): 23100 µg/mL (≈ 47.3 mM)
- solubility ([7]; ethyl acetate - heptane 1:3, 25 °C, organic solvent or mixture): 6300 µg/mL (≈ 12.9 mM)
- solubility at 24 h ([2]; pH 8.49): 66 µg/mL (≈ 0.135 mM)
- solubility ([3]; USP phosphate buffer (nominal pH 6.8), aqueous buffer, effective pH 6.97): 210 µg/mL (≈ 0.43 mM)
- solubility ([3]; USP phosphate buffer (nominal pH 7.4), aqueous buffer, effective pH 7.47): 84 µg/mL (≈ 0.172 mM)
- solubility ([3]; citrate buffer, aqueous buffer, effective pH 5.28): 13100 µg/mL (≈ 26.8 mM)
- solubility ([3]; citrate buffer, aqueous buffer, effective pH 6.11): 6600 µg/mL (≈ 13.5 mM)
- Water uptake in DVS ([4]; at 95% relative humidity): up to 0.8%
- Water release in DVS ([4]; humidity scanned back to 0% r.h.): lost all its water
